# From ChEMBL document CHEMBL6153079, “Discovery of noncovalent diaminopyrimidine-based Inhibitors for glioblastoma via a dual FAK/DNA targeting strategy” (Eur J Med Chem, 2025)
# Activity calls are given as the source filed them. The rule behind the calls is not given here.
# Legend:
# U-87 MG [1] = assay: Induction of apoptosis in human U-87 MG cells assessed as […] in cleaved caspase-3 level at 0.05 to 0.8 uM incubated for 24 hrs by Western blot analysis; assay type: functional, cell-based; conditions: U-87MG ATCC, dose 0.05-0.8 µM
# U-87 MG [2] = assay: Induction of apoptosis in human U-87 MG cells assessed as early apoptotic cells at 2 uM measured upto 24 hrs by Annexin V-FITC/PI staining based flow cytometry analysis (reference value: 0.45%); assay type: functional, U-87MG ATCC
# [3] = Selectivity ratio of IC50 for cytotoxicity against human LO2 assessed as cell viability to IC50 for antiproliferative activity against human U-251 assessed as cell viability; assay type: toxicity; conditions: LO2 cells versus U-251 cells, read-out: Ratio IC50
# U-87 MG [4] = assay: Induction of apoptosis in human U-87 MG cells assessed as viable cells at 2 uM measured upto 24 hrs by Annexin V-FITC/PI staining based flow cytometry analysis (reference value: 98.4%); assay type: functional, U-87MG ATCC; conditions: read-out: Activity
# U-87 MG [5] = assay: Induction of cell cycle arrest in human U-87 MG cells assessed as accumulation of cells at G2M phase at 0.01 uM by propidium Iodide staining based flow cytometry analysis (reference value: 9.73%); assay type: functional, U-87MG ATCC
# U-87 MG [6] = assay: Induction of apoptosis in human U-87 MG cells assessed as necrotic cells at 0.02 uM measured upto 24 hrs by Annexin V-FITC/PI staining based flow cytometry analysis (reference value: 0.62%); assay type: functional, U-87MG ATCC
# U-87 MG [7] = assay: Inhibition of cell migration in human U-87 MG cells assessed as […] in migration distance at 0.1 to 1 uM incubated for 24 to 48 hrs by wound healing assay; assay type: functional, cell-based; conditions: U-87MG ATCC, dose 0.1-1 µM, time lower 24.0 hrs, time upper […]
# U-87 MG [8] = assay: Induction of apoptosis in human U-87 MG cells assessed as viable cells at 0.01 uM measured upto 24 hrs by Annexin V-FITC/PI staining based flow cytometry analysis (reference value: 98.4%); assay type: functional, U-87MG ATCC; conditions: read-out: Activity
# U-87 MG [9] = assay: Induction of cell cycle arrest in human U-87 MG cells assessed as accumulation of cells at S phase at 0.01 uM by propidium Iodide staining based flow cytometry analysis (reference value: 9.59%); assay type: functional, U-87MG ATCC
# Focal adhesion kinase 1 = Focal adhesion kinase 1 (Homo sapiens, UniProt Q05397); assay: Inhibition of FAK phosphorylation in human U-87 MG cells at 0.05 uM incubated for 24 hrs by Western blot analysis; assay type: cell-based
# Focal adhesion kinase 1, sequence (Q05397 2-1052 limits assumed): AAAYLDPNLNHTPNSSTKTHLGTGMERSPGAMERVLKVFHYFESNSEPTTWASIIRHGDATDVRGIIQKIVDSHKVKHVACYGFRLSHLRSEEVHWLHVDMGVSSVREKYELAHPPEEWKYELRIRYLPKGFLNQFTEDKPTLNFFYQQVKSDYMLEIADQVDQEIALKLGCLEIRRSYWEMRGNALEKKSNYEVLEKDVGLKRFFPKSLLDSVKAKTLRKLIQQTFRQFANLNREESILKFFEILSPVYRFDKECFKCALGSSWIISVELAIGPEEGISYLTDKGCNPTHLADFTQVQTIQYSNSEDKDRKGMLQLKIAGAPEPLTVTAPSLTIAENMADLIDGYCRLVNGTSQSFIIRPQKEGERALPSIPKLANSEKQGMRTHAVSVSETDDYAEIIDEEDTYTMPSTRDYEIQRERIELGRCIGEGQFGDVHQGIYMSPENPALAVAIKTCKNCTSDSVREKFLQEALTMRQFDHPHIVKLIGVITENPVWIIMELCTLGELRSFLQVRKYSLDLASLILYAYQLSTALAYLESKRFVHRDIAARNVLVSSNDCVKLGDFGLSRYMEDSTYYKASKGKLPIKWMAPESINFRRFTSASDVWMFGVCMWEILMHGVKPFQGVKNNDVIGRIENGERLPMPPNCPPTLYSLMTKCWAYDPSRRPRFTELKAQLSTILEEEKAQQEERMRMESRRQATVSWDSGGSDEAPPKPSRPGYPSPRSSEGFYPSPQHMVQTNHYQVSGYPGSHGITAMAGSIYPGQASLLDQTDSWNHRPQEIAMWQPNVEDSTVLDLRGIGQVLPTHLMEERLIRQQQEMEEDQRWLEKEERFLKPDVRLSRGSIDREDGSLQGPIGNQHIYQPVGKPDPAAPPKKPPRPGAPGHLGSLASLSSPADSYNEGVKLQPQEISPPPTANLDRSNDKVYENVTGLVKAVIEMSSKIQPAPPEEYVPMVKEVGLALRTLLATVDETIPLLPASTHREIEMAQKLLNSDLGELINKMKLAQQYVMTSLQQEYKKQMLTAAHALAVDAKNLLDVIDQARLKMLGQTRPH
# [10] = Cytotoxicity against human LO2 assessed as cell viability incubated for 48 hrs by MTT assay; assay type: toxicity, cell-based, L02; conditions: LO2 cells
# U-87 MG [11] = assay: Induction of apoptosis in human U-87 MG cells assessed as late apoptotic cells at 2 uM measured upto 24 hrs by Annexin V-FITC/PI staining based flow cytometry analysis (reference value: 0.54%); assay type: functional, U-87MG ATCC
# U-87 MG [12] = assay: Induction of cell cycle arrest in human U-87 MG cells assessed as accumulation of cells at […] at 0.2 uM by propidium Iodide staining based flow cytometry analysis (reference value: 1.67%); assay type: functional, U-87MG ATCC
# U-87 MG [13] = assay: Induction of cell cycle arrest in human U-87 MG cells assessed as accumulation of cells at […] at 0.01 uM by propidium Iodide staining based flow cytometry analysis (reference value: 1.67%); assay type: functional, U-87MG ATCC
# [14] = Cytotoxicity against human 2BS assessed as cell viability incubated for 48 hrs by MTT assay; assay type: toxicity, cell-based; conditions: 2BS cells
# U-87 MG [15] = assay: Inhibition of ERK1/2 phosphorylation in human U-87 MG cells at 0.05 uM incubated for 24 hrs by Western blot analysis; assay type: cell-based
# U-87 MG [16] = assay: Induction of DNA damage in human U-87 MG cells incubated for 2.5 to 3 hrs by comet assay; assay type: functional, cell-based; conditions: U-87MG ATCC, dose 0.1-2 µM, time 2.5-3 hrs
# U-87 MG [17] = assay: Induction of cell cycle arrest in human U-87 MG cells assessed as accumulation of cells at G2M phase at 0.02 uM by propidium Iodide staining based flow cytometry analysis (reference value: 9.73%); assay type: functional, U-87MG ATCC
# U-87 MG [18] = assay: Induction of apoptosis in human U-87 MG cells assessed as early apoptotic cells at 0.02 uM measured upto 24 hrs by Annexin V-FITC/PI staining based flow cytometry analysis (reference value: 0.45%); assay type: functional, U-87MG ATCC
# [19] = Selectivity ratio of IC50 for cytotoxicity against human LO2 assessed as cell viability to IC50 for antiproliferative activity against human U-87 MG assessed as cell viability; assay type: toxicity; conditions: LO2 cells versus U-87 MG cells, read-out: Ratio IC50
# U-87 MG [20] = assay: Induction of apoptosis in human U-87 MG cells assessed as early apoptotic cells at 0.01 uM measured upto 24 hrs by Annexin V-FITC/PI staining based flow cytometry analysis (reference value: 0.45%); assay type: functional, U-87MG ATCC
# U-87 MG [21] = assay: Inhibition of AKT phosphorylation in human U-87 MG cells at 0.8 uM incubated for 24 hrs by Western blot analysis; assay type: cell-based
# [22] = Toxicity in BALB/c mouse implanted with human U-87 MG cells assessed as liver damage at 5 mg/kg, ip administered once daily for 15 days by H and E staining based analysis; assay type: organism-based; conditions: in vivo, 360 h, time 15 day
# U-87 MG [23] = assay: Induction of apoptosis in human U-87 MG cells assessed as necrotic cells at 0.01 uM measured upto 24 hrs by Annexin V-FITC/PI staining based flow cytometry analysis (reference value: 0.62%); assay type: functional, U-87MG ATCC
# U-87 MG [24] = assay: Antiproliferative activity against human U-87 MG assessed as inhibition of cell growth at 0.025 to 0.1 uM; assay type: functional, U-87MG ATCC; conditions: dose 0.025-0.1 µM
# [25] = Distribution coefficient, logD of compound in n-Octanol/water at pH 7.4; assay type: physicochemical
# [26] = Effective permeability of compound at pH 7.4 incubated for 16 hrs by LCMS analysis; assay type: ADME; conditions: pH 7.4, 16 h
# U-87 MG [27] = assay: Inhibition of ERK1/2 phosphorylation in human U-87 MG cells at 0.8 uM incubated for 24 hrs by Western blot analysis; assay type: cell-based
# [28] = Toxicity in BALB/c mouse implanted with human U-87 MG cells assessed as hypertrophy in myocardium at 5 mg/kg, ip administered once daily for 15 days by H and E staining based analysis; assay type: organism-based; conditions: in vivo, 360 h, time 15 day
# U-87 MG [29] = assay: Induction of cell cycle arrest in human U-87 MG cells assessed as accumulation of cells at […] at 0.02 uM by propidium Iodide staining based flow cytometry analysis (reference value: 1.67%); assay type: functional, U-87MG ATCC
# U-87 MG [30] = assay: Induction of cell cycle arrest in human U-87 MG cells assessed as accumulation of cells at G0/G1 phase at 2 uM by propidium Iodide staining based flow cytometry analysis (reference value: 80.68%); assay type: functional, U-87MG ATCC
# [31] = Toxicity in BALB/c mouse implanted with human U-87 MG cells assessed as body weight loss at 5 to 25 mg/kg, ip administered once daily for 15 days by H and E staining based analysis; assay type: organism-based; conditions: in vivo, 360 h, dose 5-25 mg/kg, time 15 day
# U-87 MG [32] = assay: Induction of apoptosis in human U-87 MG cells assessed as viable cells at 0.2 uM measured upto 24 hrs by Annexin V-FITC/PI staining based flow cytometry analysis (reference value: 98.4%); assay type: functional, U-87MG ATCC; conditions: read-out: Activity
# U-87 MG [33] = assay: Induction of cell cycle arrest in human U-87 MG cells assessed as accumulation of cells at G2M phase at 2 uM by propidium Iodide staining based flow cytometry analysis (reference value: 9.73%); assay type: functional, U-87MG ATCC
structure (smiles),measurement,setting,value
CNC(=O)c1ccccc1Nc1nc(Nc2ccc(N3CCN(CCOC(=O)CCCc4ccc(N(CCCl)CCCl)cc4)CC3)cc2)ncc1C(F)(F)F,Activity,U-87 MG [1],Active
same,Activity,U-87 MG [2],46.5%
same,selectivity ratio,[3],> 40
same,viability at 2 µM,U-87 MG [4],44.2%
same,Activity,U-87 MG [5],16.53%
same,Activity,U-87 MG [6],5.5%
same,inhibition,U-87 MG [7],Active
same,viability at 0.01 µM,U-87 MG [8],74.8%
same,Activity,U-87 MG [9],13.83%
same,inhibition,Focal adhesion kinase 1,Active
same,IC50 at 48 h,[10],0.586 µM
same,Activity,U-87 MG [11],7.19%
same,Activity,U-87 MG [12],1.81%
same,Activity,U-87 MG [13],1.77%
same,IC50 at 48 h,[14],11.1 µM
same,inhibition,U-87 MG [15],Active
same,Activity,U-87 MG [16],Dose-dependent-effect; Ability To Induce Dna Damage Was Stronger Than That Of Tmx And Chlorambucil
same,Activity,U-87 MG [17],20.9%
same,Activity,U-87 MG [18],25.9%
same,selectivity ratio,[19],> 40
same,Activity,U-87 MG [20],15.8%
same,inhibition,U-87 MG [21],100%
same,Activity,[22],Non-toxic
same,Activity,U-87 MG [23],4.83%
same,inhibition (INH),U-87 MG [24],100%
same,logD,[25],6.06
same,Peff,[26],0.002 10^-6 cm/s
same,inhibition,U-87 MG [27],100%
same,Activity,[28],Non-toxic
same,Activity,U-87 MG [29],1.87%
same,Activity,U-87 MG [30],38.9%
same,Activity,[31],Non-toxic
same,viability at 0.2 µM,U-87 MG [32],63.7%
same,Activity,U-87 MG [33],50.11%
